Reference: patent US20230293614A1, “COMPOSITIONS AND METHODS OF TREATING UPS-ASSOCIATED DISEASES” (Board of Supervisors of Louisiana State University and …, priority 2020, published 2023)

Assays:
DUB = test: Experiment 3: DUB reporter Z-LRGG-AMC with control, 5011 and DMC-2 treated lysates; type: biochemical
Method: Peptide used was the commercial DUB reporter [Z-LRGG-AMC (SEQ ID NO: 1)] at multiple concentrations [50-150 uM]. 1100 uL protein at 6 mg/mL for each set was given. Final protein concentration in micro-wells was 4 mg/mL. Peptide was incubated with control, 5011 treated, 1 ug/mL DMC-2, 10 ug/mL DMC-2, and 30 ug/mL DMC-2 in DUB assay buffer. Fluorometric readings were taken at different time points in plate reader. Measured at [Em 460/Ex 355]. Fluorescent signals were converted to μM/min using a calibration curve for the AMC fluorophore. Rates were plotted vs. substrate concentration (Z-LRGG-AMC peptide (SEQ ID NO: 1)) (FIG. 10). […] The curves are not perfect logarithmic curves but we can observe the trend. The results with different concentrations of DMC-2 were further plotted. When compared with control: the 5011 treatment enhances DUB activity, DMC-2 being the active part of 5011, also enhances the DUB activity. From FIG. 11, the lowest concentration of DMC2-1 μg/mL has most effect on DUB activity when compared to 30 μg/mL. Without wishing to be bound by theory, some data fluctuation with DMC-2 can occur in the 1 μg/mL range.

[1] = system: deubiquitinating enzymes (DUBs); test: DUB activity (Z-LRGG-AMC cleavage) in lysates of treated MM.1S cells; type: cell-based; settings: for Vmax / effect on DUB activity vs DMSO control / Km / n (Hill coefficient): 16 h
Method: OPM2 cells were maintained in RPMI 1640 media supplemented with 12% FBS, 21.8 mM glucose, 8.6 mM HEPES (pH 7.4) and 1.0 mM sodium pyruvate. MM.1S cell line were maintained in RPMI 1640 media supplemented with 10% FBS. The cells were all cultured in T175 flasks (VWR, Radnor, Pa.). All media components were from Corning, Atlanta, Ga. unless otherwise noted. To test the effect of the ethanolic extract and bioactive compounds on DUB activity, cells were exposed to a 16-h pretreatment with 10 μg/mL of PMI-5011 and 1, 10, 30 μg/mL concentrations of DMC-1, DMC-2, KOE, and davidigenin before lysing the cells for experimentation. All compounds were reconstituted in DMSO to obtain stock concentrations, which was further diluted in culture media to obtain the desired experimental concentrations. For vehicle control, a subpopulation of cells was treated with pure DMSO diluted in a similar manner for the same duration. Upon treatment, cell lysates (both OPM2 and MM.1S) were generated by harvesting 1×10^6 cells/mL, followed by washing 2× and pelleting in phosphate buffered saline (PBS; 137 mM NaCl, 10 mM Na2HPO4, […], and 1.75 mM KH2PO4 at pH 7.4). The cell pellet was re-suspended in an approximately equivalent volume of M-PER to the volume of the cell pellet (1000-2000 μL) then vortexed for 10 min at room temperature. Following this, the mixture was centrifuged at 14,000×g for 15 min at 4° C. and the supernatant transferred to a centrifuge tube and stored on ice until use. Total protein concentration was determined using a NanoDrop 2000c (Thermo Scientific, Madison, Wis.).
The commercial DUB reporter, Z-LRGG-AMC (substrate) (SEQ ID NO: 1) was reconstituted in DMSO to obtain a final stock concentration of 1.44 mM. This stock reporter was diluted as needed in assay buffer (50 mM HEPES, pH 7.4, 150 mM NaCl, 2 mM DTT, and 0.02% Tween-20) supplemented with 4 mg/mL cell lysates (source of DUBs) to reach the desired reporter concentration with a final volume of 100 μL in a 96-well plate. OPM2 and MM.1S cell lysates from different treatments (10 μg/mL of PMI-5011; 1, 10, and 30 μg/mL of DMC-1, DMC-2, KOE, davidigenin and control vehicle DMSO) and C2C12 cell lysates were used to interrogate the effect of the ethanolic extract and selected bioactive compounds on DUB activity. Reporter only and lysates only (noise/background) samples were included in the 96-well plate to confirm that the rates observed were due to DUB-mediated hydrolysis initiated by the cell lysates. The 96-well plate was maintained at a temperature of 30° C. in the dark for the duration of the experiment. The fluorescence signals emitted as a result of DUB-mediated cleavage of AMC (λex=355 nm and λem=460 nm) were quantified using a Wallac 1420 VICTOR2 multilabel HTS counter fluorometry (Perkin Elmer (Waltham, Mass.). Readings were collected every 30 min for 6 h. The normalized signals were obtained by comparing the treatment with noise and background fluorescence values which were then statistically analyzed for their significance. Each data point represents triplicate data points from duplicate experiments. A calibration curve was generated for known concentrations of AMC to correlate the fluorescence signal (AU) to concentration (μM). The approximate concentration of free fluorophore was used to calculate reaction rates (μM/min) for each substrate concentration using linear regression analysis.
All data visualization, interpretation and curve-fittings were performed using Origin Pro (OriginLab, Northampton, MA) while statistical analyses of experimental data were carried out using SAS 9.4 (SAS Solutions). The analyses of enzyme-substrate reactions in all cell lysates started with scatter plotting the fluorometry signals (p,M) measured for each substrate concentration against time (min). Fluorescence signals measured for each substrate concentration remained stable during the first 30 min, indicating there was a 30-minute lag period before reaction initiation. […]

COc1ccc(CCC(=O)c2ccc(O)cc2O)cc1 [DMC-2, 1-(2,4-dihydroxyphenyl)-3-(4-methoxyphenyl)propan-1-one]
concentration with most effect on DUB activity (DUB; compared to 30 μg/mL): 1 µg/mL
effect on DUB activity vs control (DUB; treated lysates 4 mg/mL, DMC-2 at 1, 10, 30 ug/mL): enhances
Vmax ([1]; 1 μg/mL): 22.70 ± 1.71 µM/min
effect on DUB activity vs DMSO control ([1]; 1 μg/mL): significantly enhanced
Vmax ([1]; 10 μg/mL): 18.13 ± 0.14 µM/min
effect on DUB activity vs DMSO control ([1]; 10 μg/mL): significantly enhanced
Vmax ([1]; 30 μg/mL): 18.12 ± 7.21 µM/min
effect on DUB activity vs DMSO control ([1]; 30 μg/mL): significantly enhanced
effect of increasing concentration on DUB activity (normalized Vmax) ([1]; 1, 10, 30 μg/mL, regression fit): negative linear effect
Km ([1]; Table 2, 1 μg/mL): 44.8 µM
Vmax ([1]; Table 2, 1 μg/mL): 0.0227 µM/min
n (Hill coefficient) ([1]; Table 2, 1 μg/mL): ~1.00
Km ([1]; Table 2, 10 μg/mL): 39.4 µM
Vmax ([1]; Table 2, 10 μg/mL): 0.0181 µM/min
n (Hill coefficient) ([1]; Table 2, 10 μg/mL): 1.68
Km ([1]; Table 2, 30 μg/mL): 42.2 µM
Vmax ([1]; Table 2, 30 μg/mL): 0.0181 µM/min
n (Hill coefficient) ([1]; Table 2, 30 μg/mL): 1.06
